Laboratory results: the supplement of paper PMC13380429
± gives the standard deviation of the averaged measurements.

What was measured:
Conditions in all cases: 72 h
[1] = tested on: U2OS; experiment: relative viability EC50 (midpoint between 100% and the lowest measured viability); higher = less toxic
[2] = tested on: Calu-3; experiment: as above
[3] = tested on: HepG2; experiment: as above
[4] = tested on: Vero E6; experiment: as above
[5] = tested on: Caco-2; experiment: as above
[6] = tested on: U2OS; experiment: cell viability relative to DMSO; higher = less toxic
[7] = tested on: Calu-3; experiment: as above
[8] = tested on: HepG2; experiment: as above
[9] = tested on: Vero E6; experiment: as above
[10] = tested on: Caco-2; experiment: as above
[11] = tested on: U2OS; experiment: drug sensitivity score (DSS) for viability; higher = more toxic; extreme values may be limits of the assay
[12] = tested on: Calu-3; experiment: as above
[13] = tested on: HepG2; experiment: as above
[14] = tested on: Vero E6; experiment: as above
[15] = tested on: Caco-2; experiment: as above

Row | SMILES | relative viability EC50 [1] | relative viability EC50 [2] | relative viability EC50 [3] | relative viability EC50 [4] | relative viability EC50 [5] | cell viability ([6]; 1 nM) | cell viability ([6]; 10 nM) | cell viability ([6]; 100 nM) | cell viability ([6]; 1000 nM) | cell viability ([6]; 10000 nM) | cell viability ([7]; 1 nM) | cell viability ([7]; 10 nM) | cell viability ([7]; 100 nM) | cell viability ([7]; 1000 nM) | cell viability ([7]; 10000 nM) | cell viability ([8]; 1 nM) | cell viability ([8]; 10 nM) | cell viability ([8]; 100 nM) | cell viability ([8]; 1000 nM) | cell viability ([8]; 10000 nM) | cell viability ([9]; 1 nM) | cell viability ([9]; 10 nM) | cell viability ([9]; 100 nM) | cell viability ([9]; 1000 nM) | cell viability ([9]; 10000 nM) | cell viability ([10]; 1 nM) | cell viability ([10]; 10 nM) | cell viability ([10]; 100 nM) | cell viability ([10]; 1000 nM) | cell viability ([10]; 10000 nM) | drug sensitivity score [11] | drug sensitivity score [12] | drug sensitivity score [13] | drug sensitivity score [14] | drug sensitivity score [15]
1 | CC(=O)N[C@H]1[C@@H](OC(C)C)O[C@H](COC(C)=O)[C@@H](OC(C)=O)[C@@H]1OC(C)=O [C34] | > 10 µM | > 10 µM | > 10 µM | > 10 µM | > 10 µM | 102% | 106% | 96.9% | 103% | 96.3% | 112% | 96.1% | 103% | 95.5% | 101% | 95.3% | 102% | 102% | 102% | 110% | 96.2% | 96.2% | 97.1% | 96.6% | 95.5% | 106% | 109% | 91.8% | 101% | 98.5% | 0 | 0 | 0 | 0 | 0
2 | CC(=O)Nc1ccc(C(=O)NC(C)(C)C)cc1 [CPI-1189] | > 10 µM | > 10 µM | > 10 µM | > 10 µM | > 10 µM | 100% | 93.3% | 98.2% | 97% | 98.7% | 108% | 105% | 108% | 114% | 96.6% | 91.5% | 95.3% | 96.6% | 97.4% | 94.2% | 96% | 99.6% | 97.8% | 97.2% | 91.8% | 99.9% | 99.7% | 104% | 95.7% | 99.9% | 0 | 0 | 0 | 0 | 0
3 | CC(C)(CC(=O)N1CCCC1)NCC(=O)N1C[C@@H](F)C[C@H]1C#N [DBPR108] | > 10 µM | > 10 µM | > 10 µM | > 10 µM | > 10 µM | 97.9% | 98.1% | 99.1% | 100% | 92.9% | 107% | 97.5% | 100% | 98.9% | 95% | 96.2% | 102% | 94.6% | 104% | 105% | 99.6% | 99.9% | 104% | 92.2% | 102% | 91.1% | 93.5% | 86.4% | 95.6% | 95% | 0 | 0 | 0 | 0 | 0
4 | O=C(c1ccc(Cl)cc1)N(Cc1ccccc1)C1CCCCC1 [FPS-ZM1] | > 10 µM | > 10 µM | > 10 µM | > 10 µM | > 10 µM | 98% | 98.6% | 97.4% | 100% | 96.2% | 105% | 96.3% | 102% | 99.3% | 89.7% | 106% | 106% | 102% | 92.9% | 93.8% | 97.6% | 97.7% | 99.3% | 101% | 90.8% | 101% | 91.6% | 93.3% | 102% | 89.4% | 0 | 0 | 0 | 0 | 0
5 | Cc1ccc2c(c1)Cc1c(C(=O)NN3CCCCC3)nn(-c3ccc(Cl)cc3Cl)c1-2 [GP1a] | > 10 µM | > 10 µM | > 10 µM | > 10 µM | > 10 µM | 99.4% | 108% | 97.7% | 101% | 89.7% | 99.6% | 101% | 91.8% | 101% | 86.7% | 100% | 96.9% | 98.4% | 91.9% | 91.3% | 99.9% | 100% | 103% | 100% | 98.6% | 102% | 102% | 103% | 99.5% | 84.1% | 0 | 0.1 | 0 | 0 | 0.3
6 | CCCCOc1nc(N)c2c(n1)N(Cc1cccc(CN3CCCC3)c1)CC(=O)N2 [GS-9620] | > 10 µM | > 10 µM | > 10 µM | > 10 µM | > 10 µM | 100% | 96.5% | 96.8% | 95.6% | 101% | 101% | 95.1% | 111% | 96.1% | 104% | 105% | 102% | 95.9% | 100% | 99.1% | 108% | 96.3% | 101% | 103% | 98.8% | 96.3% | 104% | 91.4% | 98.5% | 98.3% | 0 | 0 | 0 | 0 | 0
7 | Fc1cc(F)c2c(c1)[C@H]1C=CC[C@H]1C(c1cccnc1)N2 (stereo not given in full) [Golgicide A] | 3.46 µM | 3.01 µM | 3.48 µM | 3.2 µM | 2.97 µM | 103% | 101% | 105% | 105% | 1.7% | 103% | 108% | 108% | 98.2% | 19% | 121% | 108% | 102% | 105% | 10.9% | 111% | 108% | 105% | 100% | 4.4% | 108% | 103% | 101% | 98.2% | 31.5% | 5.1 | 4.7 | 4.5 | 5.3 | 4
8 | Nc1nonc1/C(=N/O)Nc1ccc(F)c(Cl)c1 [IDO5L] | > 10 µM | > 10 µM | > 10 µM | > 10 µM | > 10 µM | 93.1% | 95.7% | 102% | 95.5% | 102% | 92.5% | 96% | 108% | 89.6% | 114% | 92.8% | 97.8% | 104% | 89.9% | 91.2% | 106% | 102% | 96.7% | 98.8% | 114% | 101% | 95.2% | 115% | 87.7% | 109% | 0 | 0 | 0 | 0 | 0
9 | O=c1ccn([C@@H]2O[C@H](COP(=O)(O)OP(=O)(O)OP(=O)(O)O)[C@@H](O)[C@H]2O)c(=O)[nH]1 [INS316] | > 10 µM | > 10 µM | > 10 µM | > 10 µM | > 10 µM | 99.4 ± 5.7% | 95.9 ± 3.8% | 103 ± 7.8% | 96.3 ± 6.7% | 105 ± 1.8% | 94.5 ± 3.1% | 95.8 ± 7.1% | 92.5 ± 1.9% | 100.8 ± 0.21% | 101 ± 7.7% | 100 ± 1.2% | 107 ± 2% | 109 ± 10% | 105 ± 3% | 103 ± 5.7% | 98.6 ± 2.5% | 93.3 ± 11% | 98.2 ± 2.6% | 98.5 ± 4.2% | 99.1 ± 3.1% | 102 ± 6% | 107 ± 18% | 109 ± 1.8% | 113 ± 26% | 93.5 ± 13% | 0 | 0 | 0 | 0 | 0
10 | O=C(Oc1ccc([N+](=O)[O-])cc1)N1CCC(C(O)(c2ccc3c(c2)OCO3)c2ccc3c(c2)OCO3)CC1 [JZL-184] | > 10 µM | > 10 µM | > 10 µM | > 10 µM | > 10 µM | 94.9% | 100% | 98% | 96.2% | 97.9% | 105% | 115% | 100% | 91.2% | 117% | 109% | 114% | 90.5% | 116% | 97.9% | 106% | 97.2% | 91.9% | 96.4% | 91% | 104% | 98.5% | 100% | 91.5% | 104% | 0 | 0 | 0 | 0 | 0
11 | NC(=O)NCCC[C@H](N)C(=O)O [L-citrulline] | > 10 µM | > 10 µM | > 10 µM | > 10 µM | > 10 µM | 98.7% | 102% | 95.5% | 105% | 95.6% | 101% | 92.2% | 98.6% | 96.9% | 110% | 100% | 95.2% | 92.7% | 91.4% | 94% | 98.6% | 96% | 97.2% | 97.8% | 102% | 99% | 104% | 92.3% | 101% | 92.4% | 0 | 0 | 0 | 0 | 0
12 | N=C(Nc1ccccc1)c1cccs1 [LTA] | > 10 µM | > 10 µM | > 10 µM | > 10 µM | > 10 µM | 99.9% | 104% | 95.9% | 104% | 95.7% | 97.6% | 104% | 97.4% | 104% | 91.6% | 105% | 105% | 96.8% | 99.1% | 110% | 99.7% | 101% | 93.5% | 99.1% | 103% | 89.4% | 88.4% | 98.1% | 93.7% | 82.8% | 0 | 0 | 0 | 0 | 0
13 | CN1C(=O)C(F)=C[C@]2(C)[C@H]3CC[C@]4(C)[C@@H](C(=O)NCc5nc6cccnc6[nH]5)CC[C@H]4[C@@H]3CC[C@@H]12 [MK-0773] | > 10 µM | > 10 µM | > 10 µM | > 10 µM | > 10 µM | 99% | 99.4% | 98.8% | 95.4% | 95.9% | 103% | 103% | 101% | 97.7% | 100% | 91.1% | 108% | 93% | 91.4% | 87.9% | 99.2% | 102% | 96.2% | 104% | 104% | 102% | 92.4% | 100% | 83.3% | 87.7% | 0 | 0 | 0.9 | 0 | 1.8
14 | CC(C)(C)NC(=O)[C@@H](c1cccnc1)N(C(=O)c1ccco1)c1ccc(C(C)(C)C)cc1 [ML188] | > 10 µM | > 10 µM | > 10 µM | > 10 µM | > 10 µM | 93.9% | 100% | 96.6% | 101% | 98.8% | 93.6% | 93.4% | 96.9% | 102% | 89.7% | 96.3% | 101% | 92.1% | 106% | 95% | 93.1% | 97.7% | 103% | 108% | 97.6% | 99.7% | 95% | 98.2% | 101% | 89.9% | 0 | 0 | 0 | 0 | 0
